The assay has as its target T1, FPR1 (Homo sapiens, UniProt P21462).
T1 sequence (P21462 1-350): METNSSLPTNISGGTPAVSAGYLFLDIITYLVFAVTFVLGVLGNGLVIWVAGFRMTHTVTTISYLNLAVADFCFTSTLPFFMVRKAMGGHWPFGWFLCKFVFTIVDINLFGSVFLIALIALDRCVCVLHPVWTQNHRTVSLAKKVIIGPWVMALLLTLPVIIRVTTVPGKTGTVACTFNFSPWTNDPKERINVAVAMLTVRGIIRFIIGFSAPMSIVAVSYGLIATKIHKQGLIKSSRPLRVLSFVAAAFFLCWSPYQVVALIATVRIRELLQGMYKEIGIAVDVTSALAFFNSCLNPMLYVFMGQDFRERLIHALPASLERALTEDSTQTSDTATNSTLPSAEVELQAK
The experiment in a line: human neutrophil NADPH-oxidase (superoxide) and Ca2+ assays with FPR1/FPR2 antagonists and cross-desensitization; weak β-arrestin recruitment in FPR1 CHO cells. The class given is cell-based. On the technique in general: Arrestin recruitment assays detect the binding of arrestin to an activated receptor.

Usually EC50 stands for the concentration at which the effect is half-maximal. On to RE-04-001, for which the EC50 was ~1 nM.

These data come from publication PMC8246850, “Functional selective FPR1 signaling in favor of an activation of the neutrophil superoxide generating NOX2 complex” (Journal of Leukocyte Biology, 2020).
